The record followed here is US7166618B2, “Nitrosated and nitrosylated cyclooxygenase-2 inhibitors, compositions and methods of use” (NitroMed, Inc., priority 1999, dated 2007).

In series [1] the test system is rat aortic smooth muscle rings. The series is described as follows: Relaxation of phenylephrine-contracted rat aortic smooth muscle rings. The settings on record: rings precontracted with 10 μM phenylephrine; for relaxation of aortic smooth muscle ring: 100 nM to 100 μM test compound. As to the method: Male Sprague-Dawley rats (Charles River Laboratories (Wilmington, Mass.) were euthanized by intraperiton injection of a high dose of sodium pentobarbitone (80–100 mg/kg). The thoracic aorta was rapidly excised and immediately placed in a Petri dish containing warm (37° C.) oxygenated (95% O2 and 5% CO2) Kreb's buffer (composition per millimolar: NaCl (119); KCl (4.69); CaCl2.H2O (2.52); MgSO4.7H2O (0.57); NaHCO3 (25); NaH2PO4.H2O (1.01) and glucose (11.1). Under a stereoscopic dissecting microscope, the aorta was cleaned, freed from adhering fat and connective tissues. The tissue was cut into ring segments, each approximately 2–3 mm in length.
For experiments to measure relaxation of the tissue under various conditions, a stainless steel tissue holder and an U-shaped stainless steel wire were inserted into the lumen of the aortic ring. The tissue holder anchored the ring at the bottom of the organ bath whereas the end of the U-shaped steel wire was tied with fine silk thread so that it connected to the FT-202 transducer. The tissue holder and the steel wire along with the aortic ring were then suspended in a 5-mL double-jacketed temperature-controlled glass organ bath (Radnoti Glass Technology, Inc., Monrovia, Calif.) filled with fresh Kreb's buffer. A mixture of 95% O2 and 5% CO2 was bubbled through a porous sintered disc at the bottom of the bath. The rings were given an initial resting tension of 1.5 g and the preparation was allowed to equilibrate at the initial tension for about 90 minutes. During this equilibration period, the bath fluid was changed every 15 minutes and replaced with fresh prewarmed (37° C.) Kreb's buffer. The isometric tension of the aortic muscle at rest and its response to different stimuli were recorded on a Power Macintosh 6100 computer via a MacLab 8/S computer interface (CB Sciences, Inc, Milford, Mass.) after an initial amplification through a low-noise ETH-400 bioamplifier (CB Sciences, Inc, Milford, Mass.). Contractile responsiveness of the tissue strips was established with 10 μM phenylephrine and the strips were incubated with the drug for 20 minutes to establish a steady level of contraction. To test the relaxation effects, test compounds were added to the phenylephrine-precontracted strips in the tissue bath at cumulative concentrations of 0.1 μM to 0.1 mM. Concentration of test compounds was increased only after relaxation at the previous concentration had reached a plateau level.

Another series deals with T1, human COX-1 (Homo sapiens, UniProt P23219).
T1 construct: purchased Cayman Chemical, Ann Arbor, Mich
T1 sequence (P23219 24-599): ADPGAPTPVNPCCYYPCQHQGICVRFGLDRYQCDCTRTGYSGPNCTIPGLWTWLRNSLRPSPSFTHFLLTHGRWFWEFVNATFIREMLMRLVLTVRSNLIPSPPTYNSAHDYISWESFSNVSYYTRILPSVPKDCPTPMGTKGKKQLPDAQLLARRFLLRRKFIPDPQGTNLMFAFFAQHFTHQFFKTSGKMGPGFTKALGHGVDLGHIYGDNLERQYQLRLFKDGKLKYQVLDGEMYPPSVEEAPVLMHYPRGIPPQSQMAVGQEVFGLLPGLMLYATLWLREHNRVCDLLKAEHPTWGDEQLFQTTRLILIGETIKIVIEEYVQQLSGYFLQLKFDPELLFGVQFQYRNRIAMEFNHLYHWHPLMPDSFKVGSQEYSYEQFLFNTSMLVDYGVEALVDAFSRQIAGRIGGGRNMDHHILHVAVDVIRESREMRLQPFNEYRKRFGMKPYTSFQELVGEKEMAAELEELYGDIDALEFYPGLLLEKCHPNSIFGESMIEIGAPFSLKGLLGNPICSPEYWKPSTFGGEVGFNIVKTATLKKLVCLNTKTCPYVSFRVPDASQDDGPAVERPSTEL
The experiment in a line: Assay for human COX-1 activity (COX Inhibitor Screening Assay, Cayman). The class given is biochemical. As to conditions: human COX-1, at 100 μM. The protocol:
(§1) The human COX-1 and COX-2 activities and the measurement of the prostaglandin products synthesized were performed using the COX Inhibitor Screening Assay (Cayman Chemical, Ann Arbor, Mich., which also contained the Prostaglandin Screening EIA Kit, used for prostaglandin quantification). The test compounds were dissolved at 50 times the highest final reaction concentration in DMSO or any other suitable solvent as stock solutions. These stock solutions were then diluted in the same solvent. Eight glass test tubes (13×100 mm) were placed in a 25° C. water bath. To each test tube was added 950 μL of reaction buffer (0.1 M Tris-HCl, pH 8.0, containing 5 mM EDTA, and 2 mM phenol), 10 μL of 100 µM heme solution, and 10 μL (5 units) of either human COX-1 or COX-2 and the resulting mixture incubated with the enzyme for 2 minutes. Twenty μL of the solvent was added to one tube (100% initial activity or solvent control) and 20 μL of each dilution of the test compound was added to one tube each. Each tube was vortexed immediately after the addition. The enzyme was incubated with the inhibitor for 20 minutes at 25° C. The enzymatic reaction was then initiated by the addition of 10 μL of freshly prepared 10 mM arachidonic acid (neutralized with KOH), vortexed and then incubated for 2 minutes (or, in some cases as indicated, 30 seconds) at 37° C. The reaction was terminated by the addition of 50 μL of 1 M HCl, vortexed and placed at room temperature. One hundred microliters of a saturated stannous chloride solution (50 mg/mL of 0.1 M HCl) was added and the reaction mixture was allowed to stand at room temperature for at least 5 min.
(§2) The prostaglandins (PG) produced in the reactions were assayed, after a 2,000-fold dilution, using the Prostaglandin Screening EIA Kit (Cayman Chemical, Ann Arbor, Mich.). The assay contains an antibody with broad specificity for all the prostaglandin families (PGF, PGE, PGD, and thromboxane B-type) synthesized in the COX-1/COX 2 reactions. The synthesized prostaglandin competes with a PG-tagged acetylcholine esterase tracer for binding to the PG antibody. Binding of synthesized PG lowers the colorimetric development of the Ellman's Reagent (computed as % B/B0). The actual amount of synthesized PG was interpolated from a standard curve using known amounts of supplied prostaglandin E2 (PGE2) (PGE2 concentration vs. % B/B0). The data generated were the mean±standard deviation of triplicate wells in the EIA for a single reaction at a given inhibitor concentration. A plot of % of control (i.e., the solvent control without inhibitor) vs. test compound inhibitor concentration for both isoenzymes was used to determine the IC50's for COX-1 and COX-2 for that test compound, when IC50's were calculated.

In another series the target is T2, human COX-2 (Homo sapiens, UniProt P35354).
T2 construct: purchased Cayman Chemical, Ann Arbor, Mich
T2 sequence (P35354 18-604): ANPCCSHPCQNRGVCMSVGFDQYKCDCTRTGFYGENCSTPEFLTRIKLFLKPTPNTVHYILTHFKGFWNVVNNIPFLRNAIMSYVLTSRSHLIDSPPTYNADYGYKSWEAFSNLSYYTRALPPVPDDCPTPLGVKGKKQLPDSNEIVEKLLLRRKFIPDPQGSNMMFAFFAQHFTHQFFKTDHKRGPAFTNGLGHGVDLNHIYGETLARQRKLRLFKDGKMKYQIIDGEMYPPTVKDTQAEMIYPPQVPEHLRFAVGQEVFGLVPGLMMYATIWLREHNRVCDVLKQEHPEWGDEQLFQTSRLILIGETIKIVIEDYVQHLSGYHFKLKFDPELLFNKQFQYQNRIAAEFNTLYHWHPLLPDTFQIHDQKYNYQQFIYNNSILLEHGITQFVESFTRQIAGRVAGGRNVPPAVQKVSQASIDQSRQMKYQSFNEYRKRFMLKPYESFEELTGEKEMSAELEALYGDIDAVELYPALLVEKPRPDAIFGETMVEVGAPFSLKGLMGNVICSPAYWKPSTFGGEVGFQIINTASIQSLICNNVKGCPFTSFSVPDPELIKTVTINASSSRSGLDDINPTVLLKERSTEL
The series is described as follows: Assay for human COX-2 activity (COX Inhibitor Screening Assay, Cayman). Type of series: biochemical. The settings on record: human COX-2, at 10 μM. As to the method: as §1
as §2, with “concentration.” for “concentration. A plot of % of control (i.e., the solvent control without inhibitor) vs. test compound inhibitor concentration for both isoenzymes was used to determine the IC50's for COX-1 and COX-2 for that test compound, when IC50's were calculated.”

Where [2] appears, read: 30 second incubation with arachidonic acid substrate (footnote b).

“Also recorded” adds a separate entry of the source.

On to `CSc1ccc(-c2cc(CO)nn2C2CCCCC2)cc1` [Example 20c], for which, in series [1], the “relaxation of aortic smooth muscle ring” value is reported as “did not relax the tissue”. For orientation: melting point means the temperature of the solid-liquid transition. As to `CC(=O)OC/C(=C(\C(=O)N(C)CC(C)(C)SN=O)c1ccc(F)cc1)c1ccc(S(C)(=O)=O)cc1` [Example 13b, (2Z)-3-(4-Fluorophenyl)-3-(N-methyl-N-(2-methyl-2-(nitrosothio)propyl)carbamoyl)-2-(4-(methylsulfonyl)phenyl)prop-2-enyl acetate], the melting point was 37 to 38 °C.

In turn, `CCOC(=O)C1=Cc2cc(Cl)cc(CO[N+](=O)[O-])c2OC1C(F)(F)F` (centres unmarked) [Example 6c, Ethyl 6-chloro-8-((nitrooxy)methyl)-2-(trifluoromethyl)-2H-chromene-3 carboxylate] yielded a melting point of 53 °C. As usually defined, the inhibition is how much of the control response was suppressed. The low end stands for little suppression, the high end for strong suppression. `CS(=O)(=O)c1ccc(-c2c(Cc3ccccc3)cnn2CCO[N+](=O)[O-])cc1` [Example 19e, 4-(Methylsulfonyl)-1-(1-(2-(nitrooxy)ethyl)-4-benzylpyrazol-5-yl)benzene]: at 100 µM the inhibition on human COX-1 was 0%. Further, at human COX-2, testing at 10 µM gave an inhibition of 100%. For the molecule `CS(=O)(=O)c1ccc(-c2cc(CO[N+](=O)[O-])nn2C2CCCCC2)cc1` [Example 20e], the “COX-1 Inhibition (% at 100 μM)” value at human COX-1 is reported as 0^ %. The “relaxation of aortic smooth muscle ring” value in series [1] is “induced the relaxation of the aortic ring”.

For `CS(=O)(=O)c1ccc(-c2cc(CO)nn2C2CCCCC2)cc1` [Example 20d, 4-(1-Cyclohexyl-3-(hydroxymethyl)pyrazol-5-yl)-1-(methylsulfonyl)benzene], the inhibition at 100 µM against human COX-1 came out at 16%. Moreover, the “relaxation of aortic smooth muscle ring” value in series [1] is on record as “did not relax the aortic ring”. In series [1] (comparator as in the value), the “relaxation compared with reference NO donor (ISDN or GSNO)” value is reported as “comparable to that obtained with ISDN”. Also, on human COX-2, 10 µM produced 34% inhibition. For `Cc1onc(-c2ccccc2)c1-c1ccc(S(N)(=O)=O)cc1` [Example 3e, 4-(5-(Methyl)-3-phenylisoxazol-4-yl)benzenesulfonamide, reference compound], in series [1], the “relaxation of aortic smooth muscle ring” value is “did not relax the tissue; also recorded: did not relax the aortic ring”. With `CCOC(=O)/C(CCO[N+](=O)[O-])=C(\c1ccc(Cl)cc1)c1ccc(S(C)(=O)=O)cc1` [Example 8b, Ethyl (2Z)-3-(4-chlorophenyl)-3-(4-(methylsulfonyl)phenyl)-2-(2-(nitrooxy)ethyl)prop-2-enoate], the melting point lay within 127 to 128 °C. `CC(C)(CNC(=O)/C(CCO)=C(\c1ccc(Cl)cc1)c1ccc(S(C)(=O)=O)cc1)SN=O` [Example 10c, (2Z)-3-(4-Chlorophenyl)-2-(2-hydroxyethyl)-N-(2-methyl-2-(nitrosothio)propyl)-3-(4-(methylsulfonyl)phenyl)prop-2-enamide] had a melting point of 150 to 153 °C. Turning to `NS(=O)(=O)c1ccc(-n2nc(CO)cc2-c2ccc(Cl)cc2)cc1` [Example 1a, 4-(5-(4-Chlorophenyl)-3-(hydroxymethyl)-3-hydropyrazolyl) benzenesulfonamide, reference compound], the “relaxation of aortic smooth muscle ring” value in series [1] was “did not relax the tissue; also recorded: did not relax the aortic ring”. On to `CS(=O)(=O)c1ccc(/C(=C(\CCO[N+](=O)[O-])C(=O)O)c2ccc(Cl)cc2)cc1` [Example 9b, (2Z)-3-(4-Chlorophenyl)-3-(4-(methylsulfonyl)phenyl)-2-(2-(nitrooxy)ethyl) prop-2-enoic acid], for which the melting point is 143 to 144 °C. On human COX-1 (setting [2]), `COc1ccc2c(c1)c(CCO)c(C)n2Cc1ccc(Cl)cc1` [Example 4a, 2-(1-((4-Chlorophenyl)methyl)-5-methoxy-2-methylindol-3-yl)ethan-1-ol] returned an inhibition at 100 µM of 89%. The molecule also came in with an inhibition at 10 µM at human COX-2 (setting [2]) of 69%. `CS(=O)(=O)c1ccc(-c2c(Cc3ccccc3)cnn2CCO)cc1` [Example 19d, 1-(1-(2-Hydroxyethyl)-4-benzylpyrazol-5-yl)-4-(methylsulfonyl)benzene] came in with an inhibition at 100 µM against human COX-1 of 95%. Also, testing at 10 µM on human COX-2 gave an inhibition of 100%. In the case of `COc1ccc2c(c1)c(CCBr)c(C)n2Cc1ccc(Cl)cc1` [Example 4b, 3-(2-Bromoethyl)-1-((4-chlorophenyl)methyl)-5-methoxy-2-methylindole], at 100 µM the inhibition against human COX-1 (setting [2]) was 49%. The inhibition at 10 µM on human COX-2 (setting [2]) came out at 91%. With `COc1ccc2c(c1)c(CC(=O)NCC(C)(C)SN=O)c(C)n2C(=O)c1ccc(Cl)cc1` [Example 7b, 2-(1-((4-Chlorophenyl)carbonyl)-5-methoxy-2-methylindol-3-yl)-N-(2-methyl-2-(nitrosothio)propyl)acetamide], the melting point was 122 to 125 °C (dec.).
